Results as given in publication PMC11496352, “Synthesis of Novel Plant-Derived Encapsulated Radiolabeled Compounds for the Diagnosis of Parkinson’s Disease and the Evaluation of Biological Effects with In Vitro/In Vivo Methods” (Molecular Neurobiology, 2024).

What was measured:
SH-SY5Y cell line = test: Cytotoxicity study (WST) on SH-SY5Y cells; assay type: cell-based; settings: Homo sapiens
Method: (§1) SY-SH5Y and PC-12 cell lines were used in in vitro cell culture studies. SH-SY5Y cells in a medium consisting of minimum Essential Medium (Eagle) and 10% fetal bovine serum (FBS); PC-12 cells were produced in a medium consisting of RPMI 1640 medium, 10% horse serum, and 5% fetal bovine serum (FBS). All cells were incubated in 5% CO2 and 37 °C. Fresh medium was added by changing the medium every 2 days. After the cells were produced enough to cover 80% of the flasks, they were separated from the flask by means of a 0.25% (W / V) trypsin–EDTA solution and plated in 24-well plates for incorporation studies and 96-well plates for cytotoxicity studies and study groups were formed.
(§2) Cells were prepared from SY-SH5Y and PC-12 cell suspensions at 5 × 10^4 cells / mL in each well of 96-well plates. One hundred microliters of cell suspension was added to each well-formed and the solution containing MA prepared with sterile SF at five different (10^0, 10^–1, 10^–2, 10^–3, 10^–4 nM) concentrations was added to the wells outside the control. As a negative control, media without cells and reagents were used. In the study, each parameter was studied in triplicate. The plate containing the cells was incubated at 37 °C in 5% CO2. SH-SY5Y cells were incubated at 24, 48, and 72 h of incubation by adding 10 μl of WST solution to each well and incubating for another 4 h. On other hand, MTT solution was added to PC-12 cells and incubated for 4 more hours. At the end of the incubation, the MTT solution on the cells was removed and 200 µL DMSO was added to the PC-12 cells. All cells were read using a spectrophotometer, at 450 nm wavelength and 690 nm reference range, for the absorbance value of each well. Negative control was accepted as zero absorbance and % viability values were calculated with the formula [(measured absorbance value/control value) × 100] and the same procedures were repeated for the MA-L-DOPA compound.

PC-12 cell line = test: Cytotoxicity study (MTT) on PC-12 cells; assay type: cell-based; settings: Rattus norvegicus
Method: as §1, §2

[1] = parameters: method as in PMID 27992940; settings: rats; cited from earlier work

Structure (SMILES) | IC50 (SH-SY5Y cell line; 24 hour) | IC50 (SH-SY5Y cell line; 48 hour) | IC50 (SH-SY5Y cell line; 72 hour) | IC50 (PC-12 cell line; PC-12, 24 hour) | IC50 (PC-12 cell line; PC-12, 48 hour) | IC50 (PC-12 cell line; PC-12, 72 hour) | time within which uptake in the brain tissue occurs [1]
C[C@H]1[C@H](C)CC[C@]2(C(=O)O[C@@H]3O[C@H](CO[C@@H]4O[C@H](CO)[C@@H](O[C@@H]5O[C@@H](C)[C@H](O)[C@@H](O)[C@H]5O)[C@H](O)[C@H]4O)[C@@H](O)[C@H](O)[C@H]3O)CC[C@]3(C)C(=CC[C@@H]4[C@@]5(C)C[C@@H](O)[C@H](O)[C@@](C)(CO)[C@@H]5[C@H](O)C[C@]43C)[C@H]12 [MA, Madecassoside] | 12.9 ± 2.14 µM | 12.8 ± 2.24 µM | 7.45 ± 1.14 µM | 12.8 ± 2.21 µM | 12.6 ± 2.41 µM | 8.54 ± 1.37 µM | ≤ 1 h
CC1CCC2(C(=O)OC3OC(COC4OC(CO)C(OC5OC(C)C(O)C(OC(=O)C(N)Cc6ccc(O)c(O)c6)C5O)C(O)C4O)C(O)C(O)C3O)CCC3(C)C(=CCC4C5(C)CC(O)C(O)C(C)(CO)C5C(O)CC43C)C2C1C [MA-L-DOPA] | 12.9 ± 2.09 µM | 10.1 ± 2.08 µM | 7.16 ± 1.11 µM | 12.5 ± 2.21 µM | 10 ± 2.06 µM | 6.93 ± 1.09 µM | –
